This is an account of results in ChEMBL document CHEMBL1201862, “PubChem BioAssay data set” (2004).

The source made the active and inactive calls. How the calls were made is not given here. Bounds are passed on as bounds.

Common to all, as to type: functional
One assay relates to CHO-K1. As to the kind of experiment: Counterscreen for antagonists of the orexin 1 receptor (OX1R; HCRTR1): Homogeneous time resolved fluorescence (HTRF)-based cell-based dose response assay to identify antagonists of the parental CHO-K1 cell line. [Related pubchem assays (depositor defined):AID434989, AID435008, AID463079, AID485270, AID492963, AID492964, AID492965, AID493232, AID504699, AID504701]. The settings on record: Cricetulus griseus. A general note: The purpose of a counterscreen is to sort out artefacts and off-target activity.

Assay [1] has as its target Dual specificity protein kinase CLK2 (Homo sapiens, UniProt P49760).
The target in assay [2] is Serine/threonine-protein kinase pim-1 (Homo sapiens, UniProt P11309).
Chain of Serine/threonine-protein kinase pim-1 (P11309 whole entry): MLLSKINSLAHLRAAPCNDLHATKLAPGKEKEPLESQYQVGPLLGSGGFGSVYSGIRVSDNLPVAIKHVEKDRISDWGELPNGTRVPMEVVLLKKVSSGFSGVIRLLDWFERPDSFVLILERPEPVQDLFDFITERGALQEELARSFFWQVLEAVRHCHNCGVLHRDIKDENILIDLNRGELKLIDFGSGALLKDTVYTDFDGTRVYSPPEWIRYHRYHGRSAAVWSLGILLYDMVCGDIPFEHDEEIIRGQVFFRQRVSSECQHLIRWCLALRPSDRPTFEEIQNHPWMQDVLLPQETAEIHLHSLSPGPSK
The target of assay [3] is Glycogen synthase kinase-3 alpha (Homo sapiens, UniProt P49840).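 Further: GSK3A result taken from a broad kinome-wide kinase panel.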
Chain of Glycogen synthase kinase-3 alpha (P49840 whole entry): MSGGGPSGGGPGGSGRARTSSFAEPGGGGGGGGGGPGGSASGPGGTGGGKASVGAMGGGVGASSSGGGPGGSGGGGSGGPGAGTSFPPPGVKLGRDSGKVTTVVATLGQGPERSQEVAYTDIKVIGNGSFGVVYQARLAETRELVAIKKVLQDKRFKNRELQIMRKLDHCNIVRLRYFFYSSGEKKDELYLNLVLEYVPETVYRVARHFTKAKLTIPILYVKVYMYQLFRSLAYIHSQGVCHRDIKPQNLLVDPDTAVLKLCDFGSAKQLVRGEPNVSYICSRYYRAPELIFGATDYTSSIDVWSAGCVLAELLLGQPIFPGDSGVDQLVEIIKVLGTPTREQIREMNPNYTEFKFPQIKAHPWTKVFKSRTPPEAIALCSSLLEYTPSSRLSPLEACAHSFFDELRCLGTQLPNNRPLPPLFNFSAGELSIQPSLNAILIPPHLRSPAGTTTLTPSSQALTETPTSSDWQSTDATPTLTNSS
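Wherever IC50 is given: potency for inhibition of ATP-stimulated IP1 production as antagonists.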

Chain of Dual specificity protein kinase CLK2 (P49760 whole entry): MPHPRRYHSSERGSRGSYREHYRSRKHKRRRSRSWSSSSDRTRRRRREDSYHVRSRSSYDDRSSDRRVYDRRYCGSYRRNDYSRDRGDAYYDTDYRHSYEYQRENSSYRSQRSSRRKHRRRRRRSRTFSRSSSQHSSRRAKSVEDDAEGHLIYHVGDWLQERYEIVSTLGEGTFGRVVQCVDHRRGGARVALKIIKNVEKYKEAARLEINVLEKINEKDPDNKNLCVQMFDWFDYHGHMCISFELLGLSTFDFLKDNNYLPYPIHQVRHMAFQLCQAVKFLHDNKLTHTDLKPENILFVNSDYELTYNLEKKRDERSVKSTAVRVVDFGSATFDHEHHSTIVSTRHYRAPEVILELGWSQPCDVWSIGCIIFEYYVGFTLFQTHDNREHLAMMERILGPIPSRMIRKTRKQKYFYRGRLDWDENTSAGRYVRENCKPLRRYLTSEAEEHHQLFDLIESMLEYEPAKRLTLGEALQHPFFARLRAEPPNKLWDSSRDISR

One may read the IC50 as the midpoint of a concentration-inhibition curve. Turning to `Cc1ccnc2ccc(-c3nc4ccccc4o3)cc12`, the IC50 in the assay on CHO-K1 is > 66.2 µM (inactive).
As a reminder, the Ki is a dissociation constant, usually derived from enzyme kinetics or from competition with a known ligand. Regarding `O=C(NCCc1cccs1)N1CC=C(c2c[nH]c3ncccc23)CC1`, the Ki in assay [1] is 0.501 µM (active); in assay [2], 3.98 µM (active); in assay [3] it was > 3.98 µM (inactive).
